Like-named read-outs stand apart in the source and are kept apart here.
What was measured:
[1] = biological target: T1, full length human IRAK4 protein (Homo sapiens, UniProt Q9NWZ3); test: IRAK4 Biochemical Assay (Promega ADP-Glo IRAK4 Kinase Enzyme System); conditions: 3 nM enzyme, 250 μM ATP; for IC50: 2 μM MBP, 60 min at room temperature; for IRAK4 Biochemical Assay Max Inhibition (%): maximum inhibition
T1 construct: Purified full length human IRAK4 protein; purchased Signal Chem I12-10G-125
T1 sequence (Q9NWZ3 1-460): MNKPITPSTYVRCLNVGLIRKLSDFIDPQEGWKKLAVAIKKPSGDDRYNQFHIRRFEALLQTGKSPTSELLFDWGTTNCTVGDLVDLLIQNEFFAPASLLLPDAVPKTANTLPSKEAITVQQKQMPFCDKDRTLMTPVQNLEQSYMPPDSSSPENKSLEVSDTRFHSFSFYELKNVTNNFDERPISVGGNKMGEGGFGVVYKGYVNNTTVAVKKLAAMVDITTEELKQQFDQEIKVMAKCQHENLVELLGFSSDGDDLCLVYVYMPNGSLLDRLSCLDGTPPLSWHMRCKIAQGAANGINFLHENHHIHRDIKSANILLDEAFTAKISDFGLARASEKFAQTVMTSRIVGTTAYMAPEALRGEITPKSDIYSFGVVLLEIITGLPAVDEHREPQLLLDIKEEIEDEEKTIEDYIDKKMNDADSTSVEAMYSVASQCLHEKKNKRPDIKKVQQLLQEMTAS
Method: For the routine compound screening, an IRAK4 kinase assay was performed as follows using Promega ADP-Glo IRAK4 Kinase Enzyme System (Promega, Cat #2198-AD). Purified full length human IRAK4 protein (Signal Chem; Cat #I12-10G-125) was diluted to a concentration 6 nM in assay buffer (25 mM MOPS, pH 7.2, 12.5 mM β-glycerol-phosphate, 25 mM MgCl2, 5 mM EGTA, 2 mM EDTA, 0.0025% Brij-35, add 0.25 mM DTT to Kinase Assay Buffer prior to use) containing IRAK4 inhibitor at 2× the final concentration in 0.4% DMSO. The reaction was performed in PerkinElmer Proxiplate-384 plus white plate (Fisher Scientific, Cat #50-905-2761) and started by the addition of an equal volume of the assay buffer containing 4 μM native swine myelin basic protein (MBP) and 500 μM ATP to achieve a final concentration of 3 nM enzyme, 2 μM MBP, 250 μM ATP, 1× compound, and 0.2% DMSO. The kinase reaction was allowed to run for 60 min at room temperature (25-27° C.), then 5 μL of ADP-Glo was added to the reaction in each well followed by 40 minutes-incubation at RT. To detect converted […], 10 μL Detection Buffer was added into each well and Incubate at RT in dark for 30 minutes. Finally, luminescence was read using Tecan with 1000 ms of integration time. The luminescent signal positively correlates with ADP amount and kinase activity. Data was analyzed by GraphPad Prism and IC50 was calculated using function log(inhibitor) vs. response—Variable slope (four parameters). Percentage of inhibition was calculated as below:
(§1) % inhibition=(1−(Reading(Sample)−Reading(Negative Control))/(Reading(Positive Control)−Reading(Negative Control)))×100%
The 0% inhibition value comes from the Reading of Positive Control wells having 0 nM compound. The 100% inhibition value comes from the Reading of Negative Control wells having no IRAK4 kinase.

[2] = biological target: T2, IRAK4 (Homo sapiens, UniProt Q9NWZ3); test: IRAK4 Human PBMC TNFα Cell Based Assay (AlphaLISA); conditions: TNFα measured
T2 construct: host or cells: human peripheral blood mononuclear cells (PBMCs)
T2 sequence (Q9NWZ3 1-460): T1 sequence (Q9NWZ3 1-460)
Method: In this assay, serially diluted compounds were incubated with 1×10^4 human peripheral blood mononuclear cells (PBMCs) from STEMCELL (Cat #70025.1) per well of 384-well plate (Fisher Scientific; 50-905-2761) and cultured with TexMACS medium (Miltenyi, Cat #130-097-196), stimulated by R848 (0.5 μM) or IL-1β (10 ng/ml). Plates were covered with lids and incubated for 4 h (R848, Fisher Scientific, Cat #NC9801605) or 24 h (IL-1β, Fisher Scientific, Cat #ENRIL1BI) at 37° C. in a humidified tissue-culture incubator. After a brief centrifugation at 1000 rpm for 5 minutes, 5 μl of culture medium was used for the measurement of the TNFα amount using TNFα (human) AlphaLISA Detection Kit (PerkinElmer, Cat #AL208C) according to manufacturer's protocol. A biotinylated anti-TNFα antibody binds to the Streptavidin-coated Donor beads while another anti-TNFα antibody is conjugated to AlphaLISA Acceptor beads. In the presence of the TNFα, the beads come into close proximity. The excitation of the Donor beads causes the release of singlet oxygen molecules that triggers a cascade of energy transfer in the Acceptor beads, resulting in a sharp peak of light emission at 615 nm. AlphaLISA assay plates were read using PHERAstar. Percentage of inhibition was calculated as below:
as §1
The 0% inhibition value comes from the Reading of Positive Control wells having 0 nM compound. The 100% inhibition value comes from the Reading of Negative Control wells having no R848 or IL-1β.

[3] = human PBMCs stimulated by IL-1β (10 ng/ml), 24 h, read-out: IRAK4 PBMC AlphaLISA IL-1β (IC50)
[4] = human PBMCs stimulated by R848 (0.5 μM), 4 h, read-out: IRAK4 PBMC AlphaLISA R848 (IC50)

SMILES | IC50 [1] [nM] | IRAK4 Biochemical Assay Max Inhibition (%) [1] [%] | IC50 [2, 3] [nM] | IC50 [2, 4] [nM]
CC[C@@H]1[C@H](F)C(=O)N[C@@H]1COc1ncc(C#CC(C)(C)N)c2cc(C(N)=O)c(OC)cc12 [Example 2, 4-(3-amino-3-methylbut-1-yn-1-yl)-1-(((2S,3S,4S)-3-ethyl-4-fluoro-5-oxopyrrolidin-2-yl)methoxy)-7-methoxyisoquinoline-6-carboxamide] | 63 | 100.0 | 25 | 16
CC[C@@H]1[C@H](F)C(=O)N[C@@H]1COc1ncc(C#CC(C)(C)O)c2cc(C(N)=O)c(OC)cc12 [Example 3, 1-(((2S,3S,4S)-3-ethyl-4-fluoro-5-oxopyrrolidin-2-yl)methoxy)-4-(3-hydroxyl-3-methylbut-1-yn-1-yl)-7-methoxyisoquinoline-6-carboxamide] | 17 | 100.0 | 4.7 | 2.7
COc1cc2c(OC[C@@H]3CCC(=O)N3)ncc(C#Cc3ccc(C)cc3)c2cc1C(N)=O [Example 7, (S)-7-methoxy-1-((5-oxopyrrolidin-2-yl)methoxy)-4-(p-tolylethynyl)isoquinoline-6-carboxamide] |  |  | 89 | 150
COCC#Cc1cnc(OC[C@@H]2CCC(=O)N2)c2cc(OC)c(C(N)=O)cc12 [Example 9, (S)-7-methoxy-4-(3-methoxyprop-1-yn-1-yl)-1-((5-oxopyrrolidin-2-yl)methoxy)isoquinoline-6-carboxamide] | 14 | 100.0 | 110 | 140
CC[C@@H]1[C@H](F)C(=O)N[C@@H]1COc1ncc(C#Cc2nn[nH]n2)c2cc(C(N)=O)c(OC)cc12 [Example 10, 4-((2H-tetrazol-5-yl)ethynyl)-1-(((2S,3S,4S)-3-ethyl-4-fluoro-5-oxopyrrolidin-2-yl)methoxy)-7-methoxyisoquinoline-6-carboxamide] | 68 | 100.0 |  | 
CC[C@@H]1[C@H](F)C(=O)N[C@@H]1COc1ncc(C#Cc2cncnc2)c2cc(C(N)=O)c(OC)cc12 [Example 12, 1-(((2S,3S,4S)-3-ethyl-4-fluoro-5-oxopyrrolidin-2-yl)methoxy)-7-methoxy-4-(pyrimidin-5-ylethynyl)isoquinoline-6-carboxamide] | 69 | 100.0 | 0.8 | 1.4
CC[C@@H]1[C@H](F)C(=O)N[C@@H]1COc1ncc(C#Cc2cnccn2)c2cc(C(N)=O)c(OC)cc12 [Example 13, 1-(((2S,3S,4S)-3-ethyl-4-fluoro-5-oxopyrrolidin-2-yl)methoxy)-7-methoxy-4-(pyrazin-2-ylethynyl)isoquinoline-6-carboxamide] | 18 | 95.0 | 1.3 | 1.6
CC[C@@H]1[C@H](F)C(=O)N[C@@H]1COc1ncc(C#Cc2cccnc2)c2cc(C(N)=O)c(OC)cc12 [Example 14, 1-(((2S,3S,4S)-3-ethyl-4-fluoro-5-oxopyrrolidin-2-yl)methoxy)-7-methoxy-4-(pyridin-3-ylethynyl)isoquinoline-6-carboxamide] | 29 | 100.0 | 1.3 | 1.6
CC[C@@H]1[C@H](F)C(=O)N[C@@H]1COc1ncc(C#Cc2ncccn2)c2cc(C(N)=O)c(OC)cc12 [Example 16, 1-(((2S,3S,4S)-3-ethyl-4-fluoro-5-oxopyrrolidin-2-yl)methoxy)-7-methoxy-4-(pyrimidin-2-ylethynyl)isoquinoline-6-carboxamide] | 19 | 99.0 | 8.7 | 1.7
CC[C@@H]1[C@H](F)C(=O)N[C@@H]1COc1ncc(C#Cc2cnn(C)c2)c2cc(C(N)=O)c(OC)cc12 [Example 17, 1-(((2S,3S,4S)-3-ethyl-4-fluoro-5-oxopyrrolidin-2-yl)methoxy)-7-methoxy-4-((1-methyl-1H-pyrazol-4-yl)ethynyl)isoquinoline-6-carboxamide] | 32 | 100.0 | 1.5 | 2.4
CC[C@@H]1[C@H](F)C(=O)N[C@@H]1COc1ncc(C#C[C@H](C)O)c2cc(C(N)=O)c(OC)cc12 [Example 18, 1-(((2S,3S,4S)-3-ethyl-4-fluoro-5-oxopyrrolidin-2-yl)methoxy)-4-((S)-3-hydroxybut-1-yn-1-yl)-7-methoxyisoquinoline-6-carboxamide] | 27.5 | 95.0 | 1.7 | 2.5

Continued by falling IC50 [1], values first:

IC50 [1] [nM] | IRAK4 Biochemical Assay Max Inhibition (%) [1] [%] | IC50 [2, 3] [nM] | IC50 [2, 4] [nM] | SMILES
12 | 101.0 | 1.3 | 1.7 | CC[C@@H]1[C@H](F)C(=O)N[C@@H]1COc1ccc(C#CCN(C)C)c2cc(C(N)=O)c(OC)cc12 [Example 15, 8-(3-(dimethylamino)prop-1-yn-1-yl)-5-(((2S,3S,4S)-3-ethyl-4-fluoro-5-oxopyrrolidin-2-yl)methoxy)-3-methoxy-2-naphthamide]
10 | 95.0 | 1 | 0.7 | CC[C@@H]1[C@H](F)C(=O)N[C@@H]1COc1ncc(C#CC(=O)N(C)C)c2cc(C(N)=O)c(OC)cc12 [Example 11, 4-(3-(dimethylamino)-3-oxoprop-1-yn-1-yl)-1-(((2S,3S,4S)-3-ethyl-4-fluoro-5-oxopyrrolidin-2-yl)methoxy)-7-methoxyisoquinoline-6-carboxamide]
8.4 | 100.0 | 18.1 | 16 | CC[C@@H]1[C@H](F)C(=O)N[C@@H]1COc1ncc(C#CC(C)(C)NC(=O)OC(C)(C)C)c2cc(C(N)=O)c(OC)cc12 [Example 1, tert-butyl (4-(6-carbamoyl-1-(((2S,3S,4S)-3-ethyl-4-fluoro-5-oxopyrrolidin-2-yl)methoxy)-7-methoxyisoquinolin-4-yl)-2-methylbut-3-yn-2-yl)carbamate]
7.5 | 97.0 | 128 | 175 | COc1cc2c(OC[C@@H]3CCC(=O)N3)ncc(C#CCN(C)C)c2cc1C(N)=O [Example 8, (S)-4-(3-(dimethylamino)prop-1-yn-1-yl)-7-methoxy-1-((5-oxopyrrolidin-2-yl)methoxy)isoquinoline-6-carboxamide]
5.7 | 98.0 |  |  | CC[C@@H]1[C@H](F)C(=O)N[C@@H]1COc1ncc(C#CC(=O)O)c2cc(C(N)=O)c(OC)cc12 [Example 4, 3-(6-carbamoyl-1-(((2S,3S,4S)-3-ethyl-4-fluoro-5-oxopyrrolidin-2-yl)methoxy)-7-methoxyisoquinolin-4-yl)propiolic acid]
